We go through 39 compounds from US8557816B2, “Aurora kinase modulators and method of use” (Amgen Inc., priority 2007, dated 2013).

In one assay the target is T1, AuroraB (Homo sapiens, UniProt Q96GD4).
T1 construct: 20 μL of AuroraB FL H is for a final volume of 41 μL; His
Put plainly: AuroraB Homogeneous Time Resolved Fluorescent (HTRF) kinase assay. It is filed as biochemical. Particulars: average; read-out: AurB_IC50_IP (uM Avg). The essentials:
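Read-out is time-resolved FRET between europium anti-phospho-H3 antibody and streptavidin-APC, added in EDTA buffer to stop the reaction and equilibrated about 60 min (ex 320, em 615 and 655 nm). Preceding reaction: ~90 min, full-length enzyme, ATP, 0.1 μM biotin-Histone H3 substrate, Mg/Mn HEPES buffer pH 7.5.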

In a further assay the target is T2, AuroraA-TPX2 (Homo sapiens, UniProt O14965).
T2 construct: 20 μL of AuroraA-TPX2 KD GST for a final volume of about 41 μL; GST
T2 sequence (O14965 133-383 limits assumed): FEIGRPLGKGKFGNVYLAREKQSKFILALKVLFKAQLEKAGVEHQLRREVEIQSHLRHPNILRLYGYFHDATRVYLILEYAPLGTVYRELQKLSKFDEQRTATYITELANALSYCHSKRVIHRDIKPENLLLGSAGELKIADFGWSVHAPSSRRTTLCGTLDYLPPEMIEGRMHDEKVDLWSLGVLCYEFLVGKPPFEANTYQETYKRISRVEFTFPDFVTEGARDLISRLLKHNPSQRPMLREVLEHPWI
T2 sequence (Q9ULW0 1-43 partner limits assumed): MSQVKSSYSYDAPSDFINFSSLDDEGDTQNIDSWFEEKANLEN
The experiment in a line: AuroraA-TPX2 Homogeneous Time Resolved Fluorescent (HTRF) kinase assay. It counts as biochemical. To be noted: average; read-out: AurA_IC50_IP (uM Avg). Summed up:
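HTRF read-out (Eu 615 nm to APC 655 nm) of phosphorylated biotin-PLK, detected with 0.02 nM europium anti-phosphoPLK antibody and 0.0005 mg/mL SA-APC after overnight equilibration.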

T1 sequence (Q96GD4 whole entry): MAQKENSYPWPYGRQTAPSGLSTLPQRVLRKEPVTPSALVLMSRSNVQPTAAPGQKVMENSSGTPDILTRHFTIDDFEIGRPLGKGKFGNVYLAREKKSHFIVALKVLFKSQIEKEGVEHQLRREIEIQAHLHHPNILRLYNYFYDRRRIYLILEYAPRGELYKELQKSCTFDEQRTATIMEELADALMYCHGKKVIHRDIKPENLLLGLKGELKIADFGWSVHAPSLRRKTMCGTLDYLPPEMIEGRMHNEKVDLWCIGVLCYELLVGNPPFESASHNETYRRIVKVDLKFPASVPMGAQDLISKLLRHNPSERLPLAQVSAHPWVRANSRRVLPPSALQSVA

`COc1ccc2nccc(Oc3ccc(Nc4nnc(-c5cc(C)cs5)c5ccccc45)cc3)c2n1` [compound 552]: the IC50 on AuroraB worked out at 0.036 µM; at AuroraA-TPX2 it was 0.056 µM.
In the case of `Cc1ccc(-c2nnc(Nc3ccc(Sc4ccnc5cccnc45)cc3)c3ccccc23)cn1` [compound 553], the IC50 on AuroraB is 0.005 µM; at AuroraA-TPX2, 0.042 µM.
For `COc1ccc2nccc(Oc3ccc(Nc4nnc(-c5ccc(C)cn5)c5ccccc45)cc3)c2c1` [compound 554], in that order: 0.011 µM and 0.172 µM.
Take `COc1cnc2c(Sc3ccc(Nc4nnc(N5CCCC(C)(C)C5)c5ccccc45)cc3)ccnc2c1` [compound 555]: the results for the IC50 at AuroraB and at AuroraA-TPX2 were 0.105 µM and 0.102 µM, respectively.
For `COc1cnc2c(Sc3ccc(Nc4nnc(N5CC(C)CC(C)C5)c5ccccc45)cc3)ccnc2c1` (stereo not drawn) [compound 556], in that order: 0.159 µM and 0.116 µM.
As to `COc1cnc2c(Sc3ccc(Nc4nnc(N5CCC(F)CC5)c5ccccc45)cc3)ccnc2c1` [compound 557], the IC50 at AuroraB worked out at 0.059 µM; at AuroraA-TPX2, 0.161 µM.
For `COc1cnc2c(Sc3ccc(Nc4nnc(C(C)C)c5ccccc45)cc3)ccnc2c1` [compound 558], in that order: 0.041 µM and 0.378 µM.
For `Cc1cc2nccc(Sc3ccc(Nc4nnc(-c5ccc(Cl)cc5)c5ccccc45)cc3)c2s1` [compound 559], in that order: 0.098 µM and 0.168 µM.
Take `Cc1cc2nccc(Sc3ccc(Nc4nnc(-c5ccc(Cl)cn5)c5ccccc45)cc3)c2s1` [compound 560]: the IC50 was 0.081 µM at AuroraB and 0.416 µM at AuroraA-TPX2.
For `c1ccc(-c2nnc(Nc3ccc(Sc4ncnc5ccccc45)cc3)c3ccccc23)cc1` [compound 561], in that order: greater than 5 µM and greater than 25 µM.
For `Clc1ccc(-c2nnc(Nc3ccc(Oc4ncnc5ccccc45)cc3)c3ccccc23)cc1` [compound 562], in that order: 0.006 µM and 0.107 µM.
For `COc1cnc2c(Sc3ccc(Nc4nnc(N5CCN6CCC[C@H]6C5)c5ccccc45)cc3)ccnc2c1` [compound 563], in that order: 0.009 µM and 0.023 µM.
Turning to `COc1ccc2ncnc(Oc3ccc(Nc4nnc(-c5ccc(Cl)cc5)c5ccccc45)cc3)c2c1` [compound 564], the IC50 on AuroraB is 0.129 µM; on AuroraA-TPX2, greater than 25 µM.
For `COc1ccc2ncnc(Oc3ccc(Nc4nnc(-c5cc(C)cs5)c5ccccc45)cc3)c2c1` [compound 565], in that order: 0.108 µM and 0.686 µM.
For `COc1cnc2c(Oc3ccc(Nc4nnc(-c5ccc(Cl)cc5)c5ccccc45)cc3OC)ccnc2c1` [compound 566], in that order: 0.043 µM and 0.093 µM.
For `COc1cnc2c(Oc3ccc(Nc4nnc(-c5cc(C)cs5)c5ccccc45)cc3OC)ccnc2c1` [compound 567], in that order: 0.041 µM and 0.092 µM.
With `Cc1csc(-c2nnc(Nc3ccc(Oc4ncnc5ccccc45)cc3)c3ccccc23)c1` [compound 568], the IC50 was 0.011 µM at AuroraB and 0.233 µM on AuroraA-TPX2.
Turning to `O=c1ccc2nccc(Oc3ccc(Nc4nnc(-c5ccc(Cl)cc5)c5ccccc45)cc3)c2[nH]1` [compound 569], the IC50 turned out to be 0.013 µM at AuroraB and 0.128 µM at AuroraA-TPX2.
For `Clc1ccc(-c2nnc(Nc3ccc(Sc4ccnc5c4CCCN5)cc3)c3ccccc23)cc1` [compound 570], in that order: 0.008 µM and 0.05 µM.
For `FC(F)(F)Oc1ccc2nccc(Sc3ccc(Nc4nnc(-c5ccccc5)c5ccccc45)cc3)c2c1` [compound 571], in that order: greater than 25 µM and greater than 25 µM.
For `Cc1csc(-c2nnc(Nc3ccc(Sc4ccnc5ccc(OC(F)(F)F)cc45)cc3)c3ccccc23)c1` [compound 572], in that order: greater than 25 µM and greater than 25 µM.
Regarding `COc1cc(OC)c2c(Oc3ccc(Nc4nnc(-c5cc(C)cs5)c5ccccc45)cc3)ncnc2c1` [compound 573], the IC50 at AuroraB was found to be 0.114 µM; on AuroraA-TPX2, 0.042 µM.
Turning to `FC(F)(F)Oc1ccc2nccc(Oc3ccc(Nc4nnc(-c5ccc(Cl)cc5)c5ccccc45)cc3)c2c1` [compound 574], the IC50 turned out to be 0.365 µM at AuroraB and 0.752 µM at AuroraA-TPX2.
As for `Cc1csc(-c2nnc(Nc3ccc(Oc4ccnc5ccc(OC(F)(F)F)cc45)cc3)c3ccccc23)c1` [compound 575], the IC50 at AuroraB turned out to be 0.81 µM; at AuroraA-TPX2, 0.226 µM.
Regarding `COc1cnc2c(Sc3ccc(Nc4nnc(N5CCn6ccnc6C5)c5ccccc45)cc3)ccnc2c1` [compound 576], the IC50 amounted to 0.026 µM at AuroraB and 0.077 µM on AuroraA-TPX2.
For `c1ccc(-c2nnc(Nc3ccc(Sc4ccnc5c4CCCN5)cc3)c3ccccc23)cc1` [compound 577], the values for the IC50 at AuroraB and at AuroraA-TPX2 were 0.021 µM and 0.428 µM, respectively.
For `COc1cnc2c(Sc3ccc(Nc4nnc(N5CCc6sccc6C5)c5ccccc45)cc3)ccnc2c1` [compound 578], in that order: 0.081 µM and 0.033 µM.
For `COc1cnc2c(Sc3ccc(Nc4nnc(N5CCn6ncnc6C5)c5ccccc45)cc3)ccnc2c1` [compound 579], in that order: 0.032 µM and 0.228 µM.
For `COc1cnc2c(Sc3ccc(Nc4nnc(N5CCN6CCCC[C@@H]6C5)c5ccccc45)cc3)ccnc2c1` [compound 580], in that order: 0.005 µM and 0.023 µM.
With `COc1cc(OC)c2c(Sc3ccc(Nc4nnc(-c5ccccc5)c5ccccc45)cc3)ncnc2c1` [compound 581], the IC50 amounted to 0.236 µM on AuroraB and 1.13 µM at AuroraA-TPX2.
For `COc1cnc2c(Sc3ccc(Nc4nnc(N5CCN6CCC[C@@H]6C5)c5ccccc45)cc3)ccnc2c1` [compound 582], in that order: 0.006 µM and 0.029 µM.
For `COc1cnc2c(Sc3ccc(Nc4nnc(-c5ccc(OC)nc5)c5ccccc45)cc3)ccnc2c1` [compound 583], in that order: 0.008 µM and 0.028 µM.
Take `COc1cnc2c(Sc3ccc(Nc4nnc(N5CCN6CCCC[C@@H]6C5)c5ccccc45)cc3)ccnc2c1` [compound 584]: the IC50 at AuroraB is 0.005 µM; at AuroraA-TPX2, 0.009 µM.
For `COc1cnc2c(Sc3ccc(Nc4nnc(N5CCN6CCCC[C@H]6C5)c5ccccc45)cc3)ccnc2c1` [compound 585], in that order: 0.006 µM and 0.036 µM.
Consider `COc1cnc2c(Oc3ccc(Nc4nnc(N5CC[C@H]6CCCC[C@@H]6C5)c5ccccc45)cc3)ccnc2c1` [compound 586], for which the IC50 was 0.042 µM at AuroraB and 0.124 µM at AuroraA-TPX2.
For `COc1cnc2c(Oc3ccc(Nc4nnc(N5CC[C@@H]6CCCC[C@H]6C5)c5ccccc45)cc3)ccnc2c1` [compound 587], in that order: 0.033 µM and 0.217 µM.
For `COc1cnc2c(Sc3ccc(Nc4nnc(-c5ccc(C)nc5)c5ccccc45)cc3)ccnc2c1` [compound 588], in that order: 0.017 µM and 0.051 µM.
For `Cc1csc(-c2nnc(Nc3ccc(Sc4ccnc5ccc(=O)[nH]c45)cc3)c3ccccc23)c1` [compound 589], in that order: 0.008 µM and 0.019 µM.
On to `COc1cc(OC)c2c(Oc3ccc(Nc4nnc(-c5ccc(Cl)cc5)c5ccccc45)cc3)ncnc2c1` [compound 590], for which the values for the IC50 at AuroraB and on AuroraA-TPX2 were 0.02 µM and 0.027 µM, respectively.
